Converted amounts (≈) assume the structure as drawn.
Assays:
[1] = Solubility of insoluble drugs in F96 LMBW vehicle (Example 4); type: physicochemical; details: aqueous with cosolvent or surfactant or cyclodextrin, thermodynamic from solid
Source text: Twenty-two (22) insoluble drugs having a wide variety of chemical structures (including chemical element, small molecule, peptide and protein), properties and biological activities (including drugs, diagnostic agents and nutritional supplement agents) were selected and tested for solubility in F96 LMBW vehicle as follows: • 1. Measure out a fixed amount of F96 vehicle. • 2. Add a known amount of an insoluble drug substance. • 3. Mix to dissolve the drug substance. • 4. […] Record the maximum amount of the insoluble drug substance that the F96 LMBW vehicle could dissolve and use this value to calculate the drug's solubility in the F96 LMBW vehicle.

physchem = details: for Appearance of the undiluted solutions / Appearance of the solutions after being diluted in an IV infusion fluid: RT, 24 hours; for Appearance of the solutions after being diluted in an IV infusion fluid: diluted to about 0.5 to 5 mg/mL
Procedure: Different amounts of voriconazole (20 to 60 mg/mL) were first dissolved in F145V and subsequently diluted in an IV infusion fluid, such as normal saline (NS), 5% dextrose in water (D5W), water for injection (WFI), or Lactated Ringers solution, to a final voriconazole concentration of about 0.5 to 5 mg/mL.

[2] = Voriconazole stability versus pH and predicted F96 shelf life T90 (separate study); type: physicochemical
[3] = Voriconazole solubility in LMBW versus binary/ternary mixtures of L, M, B and alcohol (Example 2); type: physicochemical; details: thermodynamic from solid
Procedure: For this study, voriconazole was used as the insoluble drug.
To determine solubility in each combination, voriconazole was added to each combination and mixed until it no longer would dissolve. For each mixture, the pH was adjusted to pH 4.5-5, equilibrated at room temperature, and then passed through a 0.2-micron filter. The filtrate was analyzed by HPLC for voriconazole concentration. Each HPLC-determined voriconazole concentration is noted as a “Voriconazole solubility” in the tables below.

[4] = Solubility of insoluble drugs in 16% SBECD aqueous solution (Example 27); details: 16% SBECD aqueous solution, aqueous with cosolvent or surfactant or cyclodextrin, thermodynamic from solid
Source text: Add a known amount of an insoluble drug substance. • 3. Mix to dissolve the drug substance. • 4.

[5] = cited from earlier work

## C[C@@H](c1ncncc1F)[C@](O)(Cn1cncn1)c1ccc(F)cc1F [Voriconazole]
[1]
  solubility: 20000 µg/mL (≈ 57.3 mM)
physchem
  Solubility increase over water: 86 folds
physchem; 20 mg/mL added to F145V
  Appearance of the undiluted solutions: Clear & one-phase solution
physchem; 20 mg/mL in F145V
  Appearance of the solutions after being diluted in an IV infusion fluid: Clear & one-phase solution
physchem; 30 mg/mL added to F145V
  Appearance of the undiluted solutions: Clear & one-phase solution
physchem; 30 mg/mL in F145V
  Appearance of the solutions after being diluted in an IV infusion fluid: Clear & one-phase solution
physchem; 40 mg/mL added to F145V
  Appearance of the undiluted solutions: Clear & one-phase solution
physchem; 40 mg/mL in F145V
  Appearance of the solutions after being diluted in an IV infusion fluid: Slight precipitation
physchem; 50 mg/mL added to F145V
  Appearance of the undiluted solutions: Clear & one-phase solution
physchem; 50 mg/mL in F145V
  Appearance of the solutions after being diluted in an IV infusion fluid: Major precipitation
physchem; 60 mg/mL added to F145V
  Appearance of the undiluted solutions: Clear & one-phase solution
physchem; 60 mg/mL in F145V
  Appearance of the solutions after being diluted in an IV infusion fluid: Major precipitation
physchem; aqueous with cosolvent or surfactant or cyclodextrin
  solubility at 24 h: ≥ 60000 µg/mL
[2]
  pH at which most stable in an aqueous solution: ~4
[3]; LMBW (lecithin, MCT, bile acid, alcohols in water), pH 4.5, aqueous with cosolvent or surfactant or cyclodextrin
  solubility: 29400 µg/mL
[3]; MCT and alcohols in water), aqueous with cosolvent or surfactant or cyclodextrin, vehicle % wt in water: glycocholic acid 10.6, MCT 15, benzyl alcohol 4.5, ethanol 6.5, emulsion, opaque, pH 4.5-5, RT
  solubility: 8000 µg/mL
[3]; MCT and alcohols in water), aqueous with cosolvent or surfactant or cyclodextrin, vehicle % wt in water: lecithin 25, MCT 15, benzyl alcohol 4.5, ethanol 6.5, emulsion, opaque, pH 4.5-5, RT
  solubility: 19800 µg/mL
[3]; alcohol solution (benzyl alcohol and ethanol in water), pH 4.5, aqueous with cosolvent or surfactant or cyclodextrin
  solubility: 1100 µg/mL
[3]; aqueous with cosolvent or surfactant or cyclodextrin, vehicle % wt in water: MCT 15, emulsion, opaque, pH 4.5-5, RT
  solubility: 500 µg/mL
[3]; aqueous with cosolvent or surfactant or cyclodextrin, vehicle % wt in water: glycocholic acid 10.6, micelle solution, hazy, pH 4.5-5, RT
  solubility: 2100 µg/mL
[3]; aqueous with cosolvent or surfactant or cyclodextrin, vehicle % wt in water: lecithin 25, glycocholic acid 10.6, benzyl alcohol 4.5, ethanol 6.5, micelle solution, hazy, pH 4.5-5, RT
  solubility: 8000 µg/mL
[3]; aqueous with cosolvent or surfactant or cyclodextrin, vehicle % wt in water: lecithin 25, liposome, hazy, pH 4.5-5, RT
  solubility: 800 µg/mL
[3]; emulsion (MCT and alcohols in water), aqueous with cosolvent or surfactant or cyclodextrin, vehicle % wt in water: MCT 15, benzyl alcohol 4.5, ethanol 6.5, emulsion, opaque, pH 4.5-5, RT
  solubility: 19400 µg/mL
[3]; emulsion (glycocholic acid and MCT in water), aqueous with cosolvent or surfactant or cyclodextrin, vehicle % wt in water: glycocholic acid 10.6, MCT 15, emulsion, opaque, pH 4.5-5, RT
  solubility: 3100 µg/mL
[3]; emulsion (lecithin and MCT in water), aqueous with cosolvent or surfactant or cyclodextrin, vehicle % wt in water: lecithin 25, MCT 15, emulsion, opaque, pH 4.5-5, RT
  solubility: 1400 µg/mL
[3]; liposome (lecithin and alcohols in water), aqueous with cosolvent or surfactant or cyclodextrin, vehicle % wt in water: lecithin 25, benzyl alcohol 4.5, ethanol 6.5, liposome, hazy, pH 4.5-5, RT
  solubility: 13700 µg/mL
[3]; micelle solution (glycocholic acid and alcohols in water), aqueous with cosolvent or surfactant or cyclodextrin, vehicle % wt in water: glycocholic acid 10.6, benzyl alcohol 4.5, ethanol 6.5, micelle solution, hazy, pH 4.5-5, RT
  solubility: 7600 µg/mL
[3]; micelle solution (lecithin and glycocholic acid in water), aqueous with cosolvent or surfactant or cyclodextrin, vehicle % wt in water: lecithin 25, glycocholic acid 10.6, micelle solution, hazy, pH 4.5-5, RT
  solubility: 7100 µg/mL
[4]
  solubility: 8600 µg/mL (≈ 24.6 mM)
[5]; in water
  Solubility according to USP definition: Insoluble
[5]; water, 25° C.
  Solubility in water: about 0.7 mg/mL
[5]; water
  Reported solubility in water: 700 µg/mL
